Laboratory results: patent US8765940B2 (priority 2009, dated 2014)

Molecular target: PI3Kδ (Homo sapiens (Human), UniProt O00329)
Assay type: biochemical
Settings: PI3Kδ Alphascreen assay
Description: A PI3K Alphascreen® assay (PerkinElmer, Waltham, Mass.) was used to measure the activity of a panel of four phosphoinositide 3-kinases: PI3Kα, PI3Kβ, PI3Kγ, and PI3Kδ. Enzyme reaction buffer was prepared using sterile water (Baxter, Deerfield, Ill.) and 50 mM Tris HCl pH 7, 14 mM MgCl2, 2 mM sodium cholate, and 100 mM NaCl. 2 mM DTT was added fresh the day of the experiment. The Alphascreen buffer was made using sterile water and 10 mM Tris HCl pH 7.5, 150 mM NaCl, 0.10% Tween 20, and 30 mM EDTA. 1 mM DTT was added fresh the day of the experiment. Compound source plates used for this assay were 384-well Greiner clear polypropylene plates containing test compounds at 5 mM and diluted 1:2 over 22 concentrations. Columns 23 and 24 contained only DMSO as these wells comprised the positive and negative controls, respectively. Source plates were replicated by transferring 0.5 uL per well into 384-well Optiplates (PerkinElmer, Waltham, Mass.).
Each PI3K isoform was diluted in enzyme reaction buffer to 2× working stocks. PI3Kα was diluted to 1.6 nM, PI3Kβ was diluted to 0.8 nM, PI3Kγ was diluted to 15 nM, and PI3Kδ was diluted to 1.6 nM. PI(4,5)P2 (Echelon Biosciences, Salt Lake City, Utah) was diluted to 10 μM and ATP was diluted to 20 μM. This 2× stock was used in the assays for PI3Kα and PI3Kβ. For assay of PI3Kγ and PI3Kδ, PI(4,5)P2 was diluted to 10 μM and ATP was diluted to 8 μM to prepare a similar 2× working stock. Alphascreen reaction solutions were made using beads from the anti-GST Alphascreen kit (PerkinElmer, Waltham, Mass.). Two 4× working stocks of the Alphascreen reagents were made in Alphascreen reaction buffer. In one stock, biotinylated-IP4 (Echelon Biosciences, Salt Lake City, Utah) was diluted to 40 nM and streptavadin-donor beads were diluted to 80 μg/mL. In the second stock, PIP3-binding protein (Echelon Biosciences, Salt Lake City, Utah) was diluted to 40 nM and anti-GST-acceptor beads were diluted to 80 μg/mL.
Using a 384-well Multidrop (Titertek, Huntsville, Ala.), 10 μL/well of 2× enzyme stock was added to columns 1-24 of the assay plates for each isoform. 10 μL/well of the appropriate substrate 2× stock (containing 20 μM ATP for the PI3Kα and β assays and containing 8 μM ATP for the PI3Kγ and δ assays) was then added to Columns 1-24 of all plates. Plates were then incubated at room temperature for 20 minutes. In the dark, 10 μL/well of the donor bead solution was added to columns 1-24 of the plates to quench the enzyme reaction. The plates were incubated at room temperature for 30 minutes. Still in the dark, 10 μL/well of the acceptor bead solution was added to columns 1-24 of the plates. The plates were then incubated in the dark for 1.5 hours. The plates were read on an Envision multimode Plate Reader (PerkinElmer, Waltham, Mass.) using a 680 nm excitation filter and a 520-620 nm emission filter.

Sequence of PI3Kδ (O00329 whole entry): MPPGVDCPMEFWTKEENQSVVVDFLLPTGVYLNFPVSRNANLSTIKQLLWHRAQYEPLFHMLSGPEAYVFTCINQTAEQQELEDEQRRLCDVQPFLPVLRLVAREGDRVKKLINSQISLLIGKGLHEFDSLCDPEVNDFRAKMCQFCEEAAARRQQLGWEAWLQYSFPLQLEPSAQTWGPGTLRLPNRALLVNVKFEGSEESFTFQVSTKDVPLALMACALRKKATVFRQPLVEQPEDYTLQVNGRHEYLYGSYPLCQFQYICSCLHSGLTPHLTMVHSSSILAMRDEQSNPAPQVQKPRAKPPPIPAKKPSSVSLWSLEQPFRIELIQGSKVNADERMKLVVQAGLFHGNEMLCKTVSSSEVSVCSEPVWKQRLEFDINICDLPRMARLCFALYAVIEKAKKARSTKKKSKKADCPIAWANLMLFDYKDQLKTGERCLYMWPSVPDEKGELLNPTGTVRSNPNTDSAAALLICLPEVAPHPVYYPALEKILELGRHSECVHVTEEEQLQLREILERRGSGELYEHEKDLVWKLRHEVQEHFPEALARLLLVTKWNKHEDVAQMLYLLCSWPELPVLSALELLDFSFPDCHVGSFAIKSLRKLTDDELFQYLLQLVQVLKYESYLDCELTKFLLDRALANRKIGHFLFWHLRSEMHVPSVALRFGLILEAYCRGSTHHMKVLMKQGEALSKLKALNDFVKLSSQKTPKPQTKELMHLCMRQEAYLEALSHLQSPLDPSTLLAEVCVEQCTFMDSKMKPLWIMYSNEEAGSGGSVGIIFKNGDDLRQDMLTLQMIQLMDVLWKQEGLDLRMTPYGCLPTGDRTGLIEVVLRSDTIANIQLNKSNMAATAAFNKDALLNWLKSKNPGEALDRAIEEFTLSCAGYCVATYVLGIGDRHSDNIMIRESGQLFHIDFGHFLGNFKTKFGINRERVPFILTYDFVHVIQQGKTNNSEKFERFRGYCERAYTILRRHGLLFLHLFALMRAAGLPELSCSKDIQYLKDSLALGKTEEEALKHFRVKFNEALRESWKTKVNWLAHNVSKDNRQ
Sequence of PI3Kδ (P27986 whole entry partner): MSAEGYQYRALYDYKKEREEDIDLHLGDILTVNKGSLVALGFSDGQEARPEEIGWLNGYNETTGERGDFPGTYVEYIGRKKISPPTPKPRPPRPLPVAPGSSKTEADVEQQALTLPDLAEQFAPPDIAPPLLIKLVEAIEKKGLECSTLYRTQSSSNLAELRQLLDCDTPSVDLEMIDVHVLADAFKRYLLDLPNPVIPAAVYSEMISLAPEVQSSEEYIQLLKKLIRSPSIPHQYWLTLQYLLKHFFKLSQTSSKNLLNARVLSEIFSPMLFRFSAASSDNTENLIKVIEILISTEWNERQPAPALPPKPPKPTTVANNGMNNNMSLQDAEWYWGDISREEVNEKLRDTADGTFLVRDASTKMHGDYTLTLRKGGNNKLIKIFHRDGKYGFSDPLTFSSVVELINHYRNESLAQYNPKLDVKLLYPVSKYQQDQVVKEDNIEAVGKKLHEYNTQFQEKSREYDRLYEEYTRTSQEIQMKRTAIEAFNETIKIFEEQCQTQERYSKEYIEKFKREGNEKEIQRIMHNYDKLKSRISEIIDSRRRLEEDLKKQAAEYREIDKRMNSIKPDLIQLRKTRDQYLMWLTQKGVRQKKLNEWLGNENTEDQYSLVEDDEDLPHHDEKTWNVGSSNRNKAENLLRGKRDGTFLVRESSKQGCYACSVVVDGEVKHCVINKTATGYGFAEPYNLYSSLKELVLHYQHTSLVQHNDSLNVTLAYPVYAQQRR

SMILES | Ki [nM]
Cc1nc2ccccc2c(N2CC3(CCOCC3)c3ccc(N4CCOCC4)cc32)c1C [1-(2,3-dimethyl-4-quinolinyl)-6-(4-morpholinyl)-1,2,2′,3′,5′,6′-hexahydrospiro[indole-3,4′-pyran]] | 450
Cc1c(-c2ccccc2)nc2ccccc2c1N1CC2(CCOCC2)c2ccc(N3CCOCC3)cc21 [1-(3-methyl-2-phenyl-4-quinolinyl)-6-(4-morpholinyl)-1,2,2′,3′,5′,6′-hexahydrospiro[indole-3,4′-pyran]] | 91.3
Cc1c(N2CCCC2=O)nc2cc(F)cc(F)c2c1N1CC(C)(C)c2ncc(N3CCOCC3)cc21 [1-(4-(3,3-dimethyl-6-(4-morpholinyl)-2,3-dihydro-1H-pyrrolo[3,2-b]pyridin-1-yl)-5,7-difluoro-3-methyl-2-quinolinyl)-2-pyrrolidinone] | 1.54
Cc1c(-c2ccccn2)nc2cc(F)cc(F)c2c1N1CC2(CCOCC2)c2ccc(N3CCOCC3)cc21 [1-(5,7-difluoro-3-methyl-2-(2-pyridinyl)-4-quinolinyl)-6-(4-morpholinyl)-1,2,2′,3′,5′,6′-hexahydrospiro[indole-3,4′-pyran]] | 21.1
Cc1c(-n2ccccc2=O)nc2cc(F)cc(F)c2c1N1CC2(CCOCC2)c2ccc(N3CCOCC3)cc21 [1-(5,7-difluoro-3-methyl-4-(6-(4-morpholinyl)-2′,3′,5′,6′-tetrahydrospiro[indole-3,4′-pyran]-1(2H)-yl)-2-quinolinyl)-2(1H)-pyridinone] | 4.64
Cc1c(N2CCC2=O)nc2cc(F)cc(F)c2c1N1CC2(CCOCC2)c2ncc(N3CCOCC3)cc21 [1-(5,7-difluoro-3-methyl-4-(6′-(4-morpholinyl)-2,3,5,6-tetrahydrospiro[pyran-4,3′-pyrrolo[3,2-b]pyridin]-1′(2′H)-yl)-2-quinolinyl)-2-azetidinone] | 2.3
Cc1c(N2CCCCC2=O)nc2cc(F)cc(F)c2c1N1CC2(CCOCC2)c2ncc(N3CCOCC3)cc21 [1-(5,7-difluoro-3-methyl-4-(6′-(4-morpholinyl)-2,3,5,6-tetrahydrospiro[pyran-4,3′-pyrrolo[3,2-b]pyridin]-1′(2′H)-yl)-2-quinolinyl)-2-piperidinone] | 5.51
Cc1c(N2CCCC2=O)nc2cc(F)cc(F)c2c1N1CC2(CCOCC2)c2ncc(N3CCOCC3)cc21 [1-(5,7-difluoro-3-methyl-4-(6′-(4-morpholinyl)-2,3,5,6-tetrahydrospiro[pyran-4,3′-pyrrolo[3,2-b]pyridin]-1′(2′H)-yl)-2-quinolinyl)-2-pyrrolidinone] | 2.36
Cc1c(N2CC(C)(C)CC2=O)nc2cc(F)cc(F)c2c1N1CC2(CCOCC2)c2ncc(N3CCOCC3)cc21 [1-(5,7-difluoro-3-methyl-4-(6′-(4-morpholinyl)-2,3,5,6-tetrahydrospiro[pyran-4,3′-pyrrolo[3,2-b]pyridin]-1′(2′H)-yl)-2-quinolinyl)-4,4-dimethyl-2-pyrrolidinone] | 2.24
Cc1c(N2CC(C)(C)CCC2=O)nc2cc(F)cc(F)c2c1N1CC2(CCOCC2)c2ncc(N3CCOCC3)cc21 [1-(5,7-difluoro-3-methyl-4-(6′-(4-morpholinyl)-2,3,5,6-tetrahydrospiro[pyran-4,3′-pyrrolo[3,2-b]pyridin]-1′(2′H)-yl)-2-quinolinyl)-5,5-dimethyl-2-piperidinone] | 2.7
Cc1c(-c2ccccn2)nc2cccc(F)c2c1N1CCS(=O)(=O)c2ncc(N3CCOCC3)cc21 [1-(5-fluoro-3-methyl-2-(2-pyridinyl)-4-quinolinyl)-7-(4-morpholinyl)-2,3-dihydro-1H-pyrido[2,3-b][1,4]thiazine 4,4-dioxide] | 12.9
Cc1nc2ccc(Cl)cc2c(-n2ccc3c(O)cc(-c4cn[nH]c4)cc32)c1C [1-(6-chloro-2,3-dimethyl-4-quinolinyl)-6-(1H-pyrazol-4-yl)-1H-indol-4-ol] | 4110
Cc1nc2ccc(Cl)cc2c(-n2cc(C#N)c3ccc(-c4cn[nH]c4)cc32)c1C [1-(6-chloro-2,3-dimethyl-4-quinolinyl)-6-(1H-pyrazol-4-yl)-1H-indole-3-carbonitrile] | 2110
